Reference: US9447028B2, “Therapeutic aryl-amido-aryl compounds and their use” (King's College London, priority 2009, dated 2016)

Legend:
Assay type in all cases: cell-based
[1] = molecular target: T1, RARα (Homo sapiens, UniProt P10276); experiment: Transactivation assay for RAR alpha (gal4-RAR fusion, luciferase reporter, COS-7 cells); settings: for RARα/RARβ ratio (*): fold-selectivity for RARα over RARβ; for RARα activity ratio: ratio of test compound EC50 to that of atRA on the same plate; for Improvement (RARα activity ratio) / Improvement (RARα/RARβ ratio): compared with XXX-03
T1 construct: gal4 (fusion partner); expressed in transfected cells; host or cells: COS-7
T1 sequence (P10276 183-417 limits assumed): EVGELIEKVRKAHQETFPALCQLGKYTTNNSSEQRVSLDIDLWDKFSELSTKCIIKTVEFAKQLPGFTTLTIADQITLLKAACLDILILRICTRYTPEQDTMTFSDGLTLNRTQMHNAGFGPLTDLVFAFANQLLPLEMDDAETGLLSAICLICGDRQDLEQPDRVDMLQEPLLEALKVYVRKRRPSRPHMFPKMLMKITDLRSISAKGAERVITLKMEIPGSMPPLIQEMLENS
Description: (§1) Transcriptional transactivation assays were performed with gal4 fusion receptor constructs, created using each of the RAR ligand binding domains, co-transfected with the pFR-luc (Stratagene™) reporter construct in COS-7 cells.
(§2) Briefly, on day 1, 96 well plates were seeded with 8000 cells per well then left to recover overnight. On day 2, the cells were co-transfected with 100 ng of reporter plasmid and 10 ng of the appropriate receptor plasmid per well using lipofectamine (Invitrogen™). On day 3, the lipofectamine containing media was replaced by a DMEM without phenol red, followed by the addition of test compound dissolved in 1 μL of DMSO to each well's 100 μL total volume. Finally, on day 4, the cells were lysed and their luciferase substrate was provided by the BrightGlo™ reagent (Promega™), the plates were then read on the MicroBeta TriLux™ (Perkin Elmer™).
(§3) Where replicate data has been generated, the data are quoted as a ratio of the mean EC50 from the separate experiments.

[2] = molecular target: T2, RARβ (Homo sapiens, UniProt P10826); experiment: Transactivation assay for RAR beta (gal4-RAR fusion, luciferase reporter, COS-7 cells); settings: ratio of test compound EC50 to that of atRA; inactive = no agonist action at the highest concentration tested
T2 construct: gal4 (fusion partner); expressed in transfected cells; host or cells: COS-7
T2 sequence (P10826 183-417 limits assumed): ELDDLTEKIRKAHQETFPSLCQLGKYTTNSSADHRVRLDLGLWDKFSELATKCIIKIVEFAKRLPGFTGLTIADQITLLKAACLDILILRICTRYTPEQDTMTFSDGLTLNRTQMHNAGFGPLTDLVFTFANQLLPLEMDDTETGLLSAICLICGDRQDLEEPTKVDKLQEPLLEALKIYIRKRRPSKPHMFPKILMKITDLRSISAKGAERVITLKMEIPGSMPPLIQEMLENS
Description: as §1, §2, §3

[3] = molecular target: T3, RARγ (Homo sapiens, UniProt P13631); experiment: Transactivation assay for RAR gamma (gal4-RAR fusion, luciferase reporter, COS-7 cells); settings: ratio of test compound EC50 to that of atRA; inactive = no agonist action at the highest concentration tested
T3 construct: gal4 (fusion partner); expressed in transfected cells; host or cells: COS-7
T3 sequence (P13631 185-419 limits assumed): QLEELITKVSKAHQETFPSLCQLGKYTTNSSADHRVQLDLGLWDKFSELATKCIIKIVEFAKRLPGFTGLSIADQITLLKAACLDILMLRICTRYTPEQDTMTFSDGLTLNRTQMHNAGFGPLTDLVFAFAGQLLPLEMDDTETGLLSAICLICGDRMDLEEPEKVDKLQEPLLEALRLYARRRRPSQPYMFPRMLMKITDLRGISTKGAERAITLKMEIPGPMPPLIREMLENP
Description: as §1, §2, §3

| RARα/RARβ ratio (*) [1] | RARα activity ratio [1] | RARβ activity ratio [2] | RARγ activity ratio [3] | Improvement (RARα activity ratio) [1] | Improvement (RARα/RARβ ratio) [1] | SMILES |
| --- | --- | --- | --- | --- | --- | --- |
| 8 | 85 | 714 | 5328 |  |  | COc1c(OC(C)C)cc(C(=O)Nc2ccc(C(=O)O)cc2)cc1OC(C)C [AAA-062, 4-(3,5-Diisopropoxy-4-methoxybenzamido)benzoic acid] |
| 701 | 3.4 | 2386 | >62500 |  |  | COc1c(Cl)cc(C(=O)Nc2ccc(C(=O)O)c(O)c2)cc1C(F)(F)F [AAA-070, 4-(3-Chloro-4-methoxy-5-(trifluoromethyl)benzamido)-2-hydroxybenzoic acid] |
| 8700 | 0.30 | 2620 | 87000 |  |  | COc1c(Cl)cc(C(=O)Nc2ccc(C(=O)O)cc2)cc1C(F)(F)F [AAA-035, 4-(3-Chloro-4-methoxy-5-(trifluoromethyl)benzamido)benzoic acid] |
| 27 | 2 | 53 | 688 |  |  | O=C(O)c1ccc(NC(=O)c2cc(Cl)c(OC3CCCC3)c(C(F)(F)F)c2)cc1 [AAA-043, 4-(3-Chloro-4-(cyclopentyloxy)-5-(trifluoromethyl)benzamido)benzoic acid] |
|  |  | 3570 | 3770 | ~1.3-fold | ~7.4-fold | O=C(O)c1ccc(NC(=O)c2cc(Cl)c(OCc3ccccc3)c(Cl)c2)cc1 [AAA-005, 4-(4-(Benzyloxy)-3,5-dichlorobenzamido)benzoic acid] |
| 43 | 2.8 | 121 | 698 |  |  | Cc1cc(NC(=O)c2cc(Cl)c(OC3CCCC3)c(OC3CCCC3)c2)ccc1C(=O)O [AAA-046, 4-(3-Chloro-4,5-bis(cyclopentyloxy)benzamido)-2-methylbenzoic acid] |
| 59 | 3.0 | 177 | 2985 |  |  | CCOc1c(Cl)cc(C(=O)Nc2ccc(C(=O)O)c(C)c2)cc1C(F)(F)F [AAA-039, 4-(3-Chloro-4-ethoxy-5-(trifluoromethyl)benzamido)-2-methylbenzoic acid] |
|  |  | 2530 | inactive | ~0.9-fold | ~3.5-fold | O=C(O)c1ccc(NC(=O)c2cc(Cl)c(OCC3CC3)c(Cl)c2)cc1 [AAA-010, 4-(3,5-Dichloro-4-(cyclopropylmethoxy)benzamido)benzoic acid] |
| 46 | 2.0 | 92 | 10833 |  |  | Cc1cc(NC(=O)c2cc(Cl)c(OC3CCC3)c(OC3CCC3)c2)ccc1C(=O)O [AAA-093, 4-(3-Chloro-4,5-di(cyclobutyloxy)benzamido)-2-methylbenzoic acid] |

Further lines, the molecule ahead of its results:

| SMILES | RARα/RARβ ratio (*) [1] | RARα activity ratio [1] | RARβ activity ratio [2] | RARγ activity ratio [3] | Improvement (RARα activity ratio) [1] | Improvement (RARα/RARβ ratio) [1] |
| --- | --- | --- | --- | --- | --- | --- |
| CC(C)Oc1cc(C(=O)Nc2ccc(C(=O)O)c(F)c2)cc(Cl)c1OC(C)C [AAA-095, 4-(3-Chloro-4,5-diisopropoxybenzamido)-2-fluorobenzoic acid] | 34 | 2.7 | 92 | 812 |  |  |
| CCOc1c(Cl)cc(C(=O)Nc2ccc(C(=O)O)c(C)c2)cc1OC1CCC1 [AAA-096, 4-(3-Chloro-5-(cyclobutoxy)-4-ethoxybenzamido)-2-methylbenzoic acid] | 67 | 3.2 | 215 | 7895 |  |  |
| CCOc1c(Cl)cc(C(=O)Nc2ccc(C(=O)O)c(C)c2)cc1OC [AAA-085, 4-(3-Chloro-4-ethoxy-5-methoxybenzamido)-2-methylbenzoic acid] | 210 | 33 | 6923 | >8300 |  |  |
| O=C(O)c1ccc(NC(=O)c2cc(Cl)c(OC3CCC3)c(C(F)(F)F)c2)cc1 [AAA-036, 4-(3-Chloro-4-cyclobutoxy-5-(trifluoromethyl)benzamido)benzoic acid] | 31 | 7.0 | 215 | 2438 |  |  |
| Cc1cc(NC(=O)c2cc(Cl)c(OC(C)C)c(OC(C)C)c2)ccc1C(=O)O [AAA-051, 4-(3-Chloro-4,5-diisopropoxybenzamido)-2-methylbenzoic acid] | 45 | 0.97 | 43 | 2859 |  |  |
| CC(C)Oc1cc(C(=O)Nc2ccc(C(=O)O)c(O)c2)cc(OC(C)C)c1Br [AAA-109, 4-(4-Bromo-3,5-diisopropoxybenzamido)-2-hydroxybenzoic acid] | 396 | 4 | 1583 | 792000 |  |  |
| CCOc1c(Cl)cc(C(=O)Nc2ccc(C(=O)O)c(C)c2)cc1Cl [AAA-019, 4-(3,5-Dichloro-4-ethoxybenzamido)-2-methylbenzoic acid] |  |  | 74 | 136 | ~100-fold | ~12-fold |
| CCOc1c(OC(C)C)cc(C(=O)Nc2ccc(C(=O)O)c(F)c2)cc1OC(C)C [AAA-064, 4-(3,5-Diisopropoxy-4-ethoxybenzamido)-2-fluorobenzoic acid] | >40 | 81 | >3500 | 1977 |  |  |
| Cc1cc(NC(=O)c2cc(Cl)c(OC(C)(C)C)c(OC(C)(C)C)c2)ccc1C(=O)O [AAA-049, 4-(3,4-Di-tert-butoxy-5-chlorobenzamido)-2-methylbenzoic acid] | 13200 | 0.64 | 8460 | 82 |  |  |
| CCOc1c(Cl)cc(C(=O)Nc2ccc(C(=O)O)c(O)c2)cc1Cl [AAA-057, 4-(3,5-Dichloro-4-ethoxybenzamido)-2-hydroxybenzoic acid] | 37 | 33 | 1226 | 4920 |  |  |
| CCOc1cc(C(=O)Nc2ccc(C(=O)O)cc2)cc(OC(CC)CC)c1Cl [AAA-114, 4-(4-Chloro-3-ethoxy-5-(pentan-3-yloxy)benzamido)benzoic acid] | 23 | 4.4 | 100 | 22759 |  |  |
| CC(C)(C)Oc1c(Cl)cc(C(=O)Nc2ccc(C(=O)O)cc2)cc1C(F)(F)F [AAA-037, 4-(4-(tert-Butoxy)-3-chloro-5-(trifluoromethyl)benzamido)benzoic acid] | 1300 | 0.25 | 324 | >2600 |  |  |
| CCOc1c(Cl)cc(C(=O)Nc2ccc(C(=O)O)nn2)cc1OC(C)C [AAA-082, 6-(3-Chloro-4-ethoxy-5-isopropoxybenzamido)pyridazine-3-carboxylic acid] | 275 | 25 | 6885 | >56000 |  |  |
